Test results published in PMC7618453, “Calcium Competitive Inhibition of Langerin by Thiazolopyrimidinones” (Journal of Medicinal Chemistry, 2025).

Key:
murine langerin CRD [1] = biological target: T1, murine langerin CRD (Mus musculus, UniProt Q8VBX4); assay: 19F R2-filtered NMR assay with carbohydrate reporter ManNAcF3; assay type: binding; conditions: 25 mM MES/NaOH, 40 mM NaCl, 5 mM CaCl2, pH 6.0; 50 μM protein; read-out: K D of the carbohydrate reporter
T1 construct: Murine langerin CRD (amino acids: 191–331) was cloned; made in house; host or cells: E. coli BL21
T1 sequence (Q8VBX4 191-331): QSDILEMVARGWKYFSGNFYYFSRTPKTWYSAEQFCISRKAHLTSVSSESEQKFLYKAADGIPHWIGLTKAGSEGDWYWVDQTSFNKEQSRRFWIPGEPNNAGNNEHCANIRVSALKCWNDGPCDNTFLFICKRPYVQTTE
Description: ^19F-NMR and ^19F-R2-filtered NMR experiments were conducted on a Bruker UltraShield 500 MHz spectrometer at 298 K. Spectra were processed in MestReNova 12.0, and data analysis was performed with GraphPad Prism version 10.2.0 for Windows (GraphPad Software, Boston, Massachusetts, USA, www.graphpad.com). Relaxation rates R 2,obs were determined with the CPMG pulse sequence, eq shown below. T represents the relaxation time, and I 0 is the integral at a T value of 0 s. The relaxation delay d 1 was set to 2.0 s, the acquisition time t acq was set to 0.87 s, and the frequency of 180° pulses νCPMG was set to 500 Hz. I=I0e^−R2,obsT 2
The KD value of the reporter was determined in a titration experiment at five concentrations [L]T with 50 μM protein. Samples were prepared via serial dilution. The K D and the R 2,b value of the reporter molecule were derived from eq by detection of the ^19F NMR relaxation rate R 2,obs in a two-parameter fit. R 2,b represents the relaxation rate in the bound state of the ligand, and p b is the bound fraction of the ligand, while [P]T represents the concentration of the receptor. The relaxation rate of the free ligand R 2,f was measured at 0.1 mM in the absence of the receptor. […]
Due to the complex equilibrium and competition effects present in the competitive binding experiments, EC50 values were utilized to quantify the inhibition degree. […]

langerin = conditions: previous results using more elaborate structures from this series (reference number not given); cited from earlier work
murine langerin CRD [2] = biological target: T1, murine langerin CRD; assay: 43Ca NMR assay of Ca2+ binding to langerin in the presence of inhibitors; design: Chemical shift δ (Table S1, 43Ca NMR) / Linewidth ∆ν (Table S1, 43Ca NMR): unit not given here; conditions: Ca2+ + langerin + 400 μM inhibitor, pH 6.0; for Chemical shift δ (Table S1, 43Ca NMR): free 0.175, langerin-bound 0.116; for Linewidth ∆ν (Table S1, 43Ca NMR): free 0.89, langerin only 1.94; for Integral (relative to the ligand present free state) (Table S1, 43Ca NMR): free 1, langerin only 0.147
Description: ^43Ca NMR samples contain 50 μM langerin CRD in 25 mM MES/NaOH and 40 mM NaCl, pH 6.0, with 2.5 mM ^43CaCl2 (elemental calcium enriched to 57.9%, prepared from CaCO3 by hydrolysis with conc. HClaq followed by drying under vacuum; repeated three times), 400 μM compound, and 10% D2O. The negative controls contain the same components except for the protein. The positive control has 5 mM EDTA for fully chelating 2.5 mM Ca^2+ in 25 mM MES/NaOH and 40 mM NaCl. A spectrum width between 50 and −50 ppm was chosen. NMR spectra were measured at 25 °C on a 500 MHz Bruker NEO spectrometer equipped with a BBO probe. The carrier frequency was set to 0 ppm, and spectra were recorded with a recovery delay of […] and 1024 scans. All experiments were carried out with constant concentrations, volumes, receiver gains, and numbers of averaged FIDs.
Data processing and visualization were performed using TopSpin 4.4.0 (Bruker BioSpin GmbH, Rheinstetten, Germany) and MestReNova 10.0 (Mestrelab Research, Santiago de Compostela, Spain). Spectra were processed using an exponential window function with 1.00 Hz, zero-filled to a final size of 32,768 points (from an original FID size of 3,424), and baseline-corrected using spline. Parameter extraction was performed on data fitted without a window function to ensure an unbiased representation of the spectral features. […]

murine langerin CRD [3] = biological target: T1, murine langerin CRD; assay: ITC titration of inhibitors into murine langerin CRD; assay type: binding; conditions: for Kd: ITC, 278.15 K; for Ligand efficiency (LE): based on the best affinities from both conditions (Ca2+ present/absent), Gibbs free energy / number of non-hydrogen atoms
Description: Isothermal titration calorimetry experiments were performed using a PEAQ-ITC from Malvern or a Nano ITC from TA Instruments at 278.15 K. Langerin CRD in 25 mM MES/NaOH pH = 6.0 with 40 mM NaCl was injected in the sample cell (total volume 170–300 μL, receptor concentration 80–100 μM) of the device. The titrant was dissolved in the same buffer as the protein and added in 20 steps of 2.5 μL (first injection, 1.2 μL; total volume, 50 μL) while stirring at 350 rpm. The differential heat of each injection was measured and plotted against the molar ratio. All thermograms were integrated using NITPIC, the titration curves were fitted using SEDPHAT with error estimates using the confidence interval, and all figures were made in GUSSI.
For Ca^2+ titration, calcium chloride solutions were prepared in 25 mM MES/NaOH, 40 mM NaCl in the syringe. Langerin CRD was dialyzed against 25 mM MES/NaOH, 40 mM NaCl with 10 mM EDTA, and subsequently 25 mM MES/NaOH, 40 mM NaCl, to remove Ca^2+ before loading into the sample cell. The thermogram of Ca^2+ titration was fitted with the One-Site (independent) model. In the Ca^2+ present titration set up, the protein was in 25 mM MES/NaOH, 40 mM NaCl with 5 mM calcium chloride, and 5% DMSO in the sample cell. The ligand concentration was set to 0.1–2 mM, depending on the solubility, and dissolved in the same buffer as the protein. The raw data were fitted using either the One-Site (independent) model or the Competitive Binding model. Affinity and enthalpy data of Ca^2+ binding to langerin were extracted from the Ca^2+ titration and applied in the Competitive Binding model subsequently. In the Ca^2+ absent titration set up: ligand concentration was set to 0.1–2 mM, receptor concentration was set to 80–100 μM, both dissolved in 25 mM MES/NaOH, 40 mM NaCl with 5%DMSO. The thermogram was fitted with the one-site (independent) model.
Isothermal Titration Calorimetry (ITC)
The raw ITC data were initially processed using the default software provided by respective ITC instrument: MicroCal PEAQ-ITC Analysis Software 1.41 and Nanoanalyze Data Analysis 3.5.0. For MicroCal, the fitting model was set to One Set of Sites, with the following parameters: baseline option (time factor 5, points per injection 25), control parameter set to Fitted Offset, site value fixed at 1 and other parameters set to vary. For Nanoanalyze, blank titration files were used for area correction, fitting model set to independent, binding site n fixed at 1, and other parameters allowed to vary.
The raw data from both systems were further processed using NITPIC 2.1.0, baseline type set to Best Fit, with pre- and post-injection tail correction applied, integral significance level was adjusted based on the quality of each titration, and the outlier threshold was defined as twice of the standard deviation. The processed data were then analyzed in SEDPHAT 15.2b. For Ca2+ titration and ligand titration in the absence of Ca2+, the fitting model was set as Hetero Association A-B (Single-site model) with the global parameter log(Ka) and dHAB set as vary. For ligand titration in the presence of Ca2+, the fitting model was set as Competing B and C for A (Competitive binding model) with the global parameter log(KAC) and dHAC set as the data obtained from Ca2+ titration (4.336 and -8.2 kcal/mol), and log(KAB) and dHAB as vary. Experimental parameters for titration were defined as Titrating B into AC. Final presentation of the […]

murine langerin = conditions: in the presence of Ca^2+; previously reported, previous screening campaign (reference number not given); read-out: previously reported affinities; cited from earlier work
[4] = Solubility assessment using 1H NMR; assay type: physicochemical; conditions: DSS reference, titrated from DMSO stock into protein buffer
Description: The compounds were dissolved in 100 mM DMSO and titrated into the same buffer solution where the protein was stored for different essays. DSS was used as the reference with a concentration of 100 µM. The integration and chemical shift of the ligand signals were monitored as indicators of potential aggregation. The solubility of compounds 1, 2, 3 were reported elsewhere. 1
Figure S1. Solubility assessment of compound 3 and 5 using 1H NMR. Compound […]
with the expected ratio relative to DSS, indicating its solubility at 1 mM in aqueous […]
(1 picture or pasted object on this page, not shown here)

[5] = 5 mM CaCl2, 25 mM MES/NaOH pH 6.0, 40 mM NaCl, 5% DMSO, mean ± standard error of fit, read-out: K D [single-site model] (A + B↔AB), Ca^2+ present
[6] = 5 mM CaCl2, pH 6.0, 5% DMSO, competition between inhibitor and Ca2+ assumed, read-out: K D [competitive binding model] (A + B + C ↔ AB + C ↔ AC + B), Ca^2+ present
[7] = Ca2+-depleted protein, 25 mM MES/NaOH pH 6.0, 40 mM NaCl, 5% DMSO, read-out: K D [single-site model] (A + B ↔ AB), Ca^2+ absent

## C#CCO[C@H]1O[C@H](CO)[C@@H](O)[C@H](O)[C@@H]1NC(=O)C(F)(F)F [ManNAcF3]
Murine langerin CRD [1]
  Kd: 28000 ± 5000 µM

## O=C(NCCc1cn2c(n1)SCC2)c1cnc2sccn2c1=O [N-(2-(2,3-dihydroimidazo[2,1-b]-thiazol-6-yl)-ethyl)-5-oxo-5H-thiazolo[3,2-a]-pyrimidine-6-carboxamide]
langerin
  Competition with Ca^2+: did not show competition with Ca^2+

## Cc1sc2ncc(C(=O)O)c(=O)n2c1C [Compound 3]
Murine langerin CRD [2]
  Chemical shift δ (Table S1, 43Ca NMR): 0.139
  Linewidth ∆ν (Table S1, 43Ca NMR): 1.78
  Integral (relative to the ligand present free state) (Table S1, 43Ca NMR): 0.344
Murine langerin CRD [3]; [5]
  Kd: 150 ± 40 µM
Murine langerin CRD [3]; [6]
  Kd: 17 ± 4 µM
Murine langerin CRD [3]; [7]
  Kd: 53 ± 8 µM
Murine langerin CRD [3]
  Ligand efficiency (LE): 0.44 kcal·mol^–1·HA^–1
Murine langerin
  Kd: 900 µM
[4]; aqueous protein storage buffer, aqueous buffer, kinetic from dmso stock
  solubility: ≥ 1000 µM

## O=C(O)c1cnc2sccn2c1=O [Compound 1]
Murine langerin CRD [2]
  Chemical shift δ (Table S1, 43Ca NMR): 0.173
  Linewidth ∆ν (Table S1, 43Ca NMR): 2.80
  Integral (relative to the ligand present free state) (Table S1, 43Ca NMR): 0.355
Murine langerin CRD [3]; [7]
  Kd: 1100 ± 300 µM
Murine langerin CRD [3]
  Ligand efficiency (LE): 0.31 kcal·mol^–1·HA^–1
Murine langerin
  Kd: 700 µM

## Cc1csc2ncc(C(=O)O)c(=O)n12 [Compound 2]
Murine langerin CRD [2]
  Chemical shift δ (Table S1, 43Ca NMR): 0.154
  Linewidth ∆ν (Table S1, 43Ca NMR): 1.79
  Integral (relative to the ligand present free state) (Table S1, 43Ca NMR): 0.324
Murine langerin CRD [3]; [5]
  Kd: 400 ± 70 µM
Murine langerin CRD [3]; [6]
  Kd: 81 ± 12 µM
Murine langerin CRD [3]; [7]
  Kd: 19 ± 2 µM
Murine langerin CRD [3]
  Ligand efficiency (LE): 0.46 kcal·mol^–1·HA^–1
Murine langerin
  Kd: 1200 µM

## O=C(O)c1cnc2ccccn2c1=O [Compound 5, 4-oxo-4H-pyrido[1,2-a]pyrimidine-3-carboxylic acid]
[4]
  Solubility in aqueous buffer: partial solubility

## NCCNC(=O)c1cnc2ccccn2c1=O [Compound 4, N-(2-Aminoethyl)-4-oxo-4H-pyrido[1,2-a]pyrimidine-3-carboxamide]
Murine langerin CRD [2]
  Chemical shift δ (Table S1, 43Ca NMR): 0.174
  Linewidth ∆ν (Table S1, 43Ca NMR): 1.64
  Integral (relative to the ligand present free state) (Table S1, 43Ca NMR): 0.316
Murine langerin CRD [3]; [5]
  Kd: 8500 ± 2000 µM
Murine langerin CRD [3]; [6]
  Kd: 480 ± 70 µM
Murine langerin CRD [3]; [7]
  Kd: 200 ± 90 µM
Murine langerin CRD [3]
  Ligand efficiency (LE): 0.27 kcal·mol^–1·HA^–1
